What was measured:
[1] = target: T1, LysRNt (LysRNtHis6) (Nocardia terpenica, UniProt A0A164MN72); test: fluorescence thermal shift, SYPRO Orange; type: binding; settings: read-out: dTmD at 0.6 mM
T1 construct: gene AWN90_33365; full length, C-terminal His6 tag kept (pET-21a(+)lysRNt), E. coli Rosetta 2(DE3), Talon column; only monomer seen; re-annotated start (not the N-terminally extended lysRlnNt)
T1 sequence (A0A164MN72 1-303): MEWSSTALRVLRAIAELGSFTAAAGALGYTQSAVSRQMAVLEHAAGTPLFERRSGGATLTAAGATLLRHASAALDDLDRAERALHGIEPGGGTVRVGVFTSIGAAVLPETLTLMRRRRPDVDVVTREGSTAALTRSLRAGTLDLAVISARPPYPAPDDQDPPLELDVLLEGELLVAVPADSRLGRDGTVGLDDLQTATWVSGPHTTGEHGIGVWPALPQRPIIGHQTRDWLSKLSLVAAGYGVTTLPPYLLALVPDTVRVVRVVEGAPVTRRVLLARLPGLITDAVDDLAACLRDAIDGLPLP

[2] = target: T1, LysRNt (LysRNtHis6); test: EMSA with […]-labelled bra12p DNA; type: binding; settings: 500 nM protein, PBS, 1% ethanol

Row | SMILES | ΔTm at 600 µM [1] [°C] | % DNA-protein complex remaining at 1 mM ([2]; weak effect) [%] | % DNA-protein complex remaining at 1 mM ([2]; compound lowers DNA binding) [%]
1 | O=C(O)c1ccccc1 [compound 2, sodium benzoate] | 0.19 | 84 | –
2 | O=C(O)c1cccc(O)c1 [compound 5, 3-hydroxybenzoic acid] | 0.17 | 86 | –
3 | O=C(O)c1ccccc1O [compound 4, salicylic acid] | 0.74 | – | 47

— PMC7837296, “A novel LysR‐type regulator negatively affects biosynthesis of the immunosuppressant brasilicardin” (Engineering in Life Sciences, 2020)
